Data from US20220048895A1, “SUBSTITUTED BENZAZEPINE COMPOUNDS, CONJUGATES, AND USES THEREOF” (SILVERBACK THERAPEUTICS, INC., priority 2018, published 2022).

tested on: Human peripheral blood mononuclear cells (PBMC); assay: PBMC screening assay: TNF-α in supernatant by ELISA or HTRF; assay type: cell-based; conditions: TNF-α activity in supernatant of human PBMC, 24 hours incubation, 1000 to 0.000238 nM
Experimental: Materials and general procedures. Human peripheral blood mononuclear cells (PBMC) were obtained from BenTek, frozen at 25×10^6 cell/mL in 10% DMSO (Sigma) prepared in fetal bovine serum (Gibco) and stored in liquid nitrogen. For the culture, PBMC were thawed quickly in a 37° C. water bath and diluted into pre-warmed RPMI 1640 (Lonza) supplemented with 10% fetal bovine serum, 2 mM glutamine, […] (all from Gibco) and centrifuged for 5 minutes at 500×g. PBMC were suspended into the growth media described above and cultured at a concentration of 1×10^6 cells per mL at 37° C. in a 5% CO2 incubator.
General procedure for in vitro small molecule screening. PBMC were thawed, suspended at a concentration of 1×10^6 cell/mL in growth media and 200 μL was aliquoted into each well of a 96-well plate for a total of 0.2×10^6 cells per well. PBMC were incubated for approximately 16-18 hours at 37° C. in a 5% CO2 humidified incubator. PBMC plates were centrifuged at 500×g for 5 minutes and the growth media was removed. 150 μL of twelve concentrations ranging from 1000 to 0.000238 nM of small molecules prepared in growth media were added to PBMC in duplicate and incubated for 24 hours at 37° C. in a 5% CO2 incubator. Prior to supernatant harvest, cells were spun at 500×g for 5 minutes to remove cell debris. TNF-α activity was assessed in the supernatant by ELISA (eBioscience) or HTRF (CisBio) per the manufacturer's instructions. The optical density at 450 nm and 570 nm (ELISA) or […] (HTRF) was analyzed using an Envision (Perkin Elmer) plate reader, as shown in Table 2.

| Compound | EC50 [nM] |
| --- | --- |
| CCCN(CCC)C(=O)C1=Cc2ccc(-c3ccc(C(=O)N4CCNC(c5ccccc5)C4)cc3)cc2N=C(N)C1 (centres unmarked) [Compound 1.1, 2-amino-8-(4-(3-phenylpiperazine-1-carbonyl)phenyl)-N,N-dipropyl-3H-benzo[b]azepine-4-carboxamide] | < 50 |
| CCCN(CCC)C(=O)C1=Cc2ccc(-c3ccc(C(=O)N4CCN[C@H](c5ccccc5)C4)cc3)cc2N=C(N)C1 [Compound 1.2, (R)-2-amino-8-(4-(3-phenylpiperazine-1-carbonyl)phenyl)-N,N-dipropyl-3H-benzo[b]azepine-4-carboxamide] | < 50 |
| CCCN(CCC)C(=O)C1=Cc2ccc(-c3ccc(C(=O)N4CCN[C@@H](c5ccccc5)C4)cc3)cc2N=C(N)C1 [Compound 1.3, (S)-2-amino-8-(4-(3-phenylpiperazine-1-carbonyl)phenyl)-N,N-dipropyl-3H-benzo[b]azepine-4-carboxamide] | < 50 |
| CCCN(CCC)C(=O)C1=Cc2ccc(-c3ccc(C(=O)N4CCN(c5ccccc5)CC4)cc3)cc2N=C(N)C1 [Compound 1.4, 2-amino-8-(4-(4-phenylpiperazine-1-carbonyl)phenyl)-N,N-dipropyl-3H-benzo[b]azepine-4-carboxamide] | 50 to 500 |
| CCCN(CCC)C(=O)C1=Cc2ccc(-c3ccc(C(=O)N4CCC(O)(c5ccccc5)CC4)cc3)cc2N=C(N)C1 [Compound 1.5, 2-amino-8-(4-(4-hydroxy-4-phenylpiperidine-1-carbonyl)phenyl)-N,N-dipropyl-3H-benzo[b]azepine-4-carboxamide] | 50 to 500 |
| CCCN(CCC)C(=O)C1=Cc2ccc(-c3ccc(C(=O)N4CCCC(CO)C4)cc3)cc2N=C(N)C1 (centres unmarked) [Compound 1.6, 2-amino-8-(4-(3-(hydroxymethyl)piperidine-1-carbonyl)phenyl)-N,N-dipropyl-3H-benzo[b]azepine-4-carboxamide] | 50 to 500 |
| CCCN(CCC)C(=O)C1=Cc2ccc(-c3ccc(C(=O)N4CCC(CO)(c5ccccc5)CC4)cc3)cc2N=C(N)C1 [Compound 1.7, 2-amino-8-(4-(4-(hydroxymethyl)-4-phenylpiperidine-1-carbonyl)phenyl)-N,N-dipropyl-3H-benzo[b]azepine-4-carboxamide] | > 500 |
| CCCN(CCC)C(=O)C1=Cc2ccc(-c3ccc(C(=O)N4CCc5ccccc5C4)cc3)cc2N=C(N)C1 [Compound 1.8, 2-amino-N,N-dipropyl-8-(4-(1,2,3,4-tetrahydroisoquinoline-2-carbonyl)phenyl)-3H-benzo[b]azepine-4-carboxamide] | > 500 |
| CCCN(CCC)C(=O)C1=Cc2ccc(-c3ccc(C(=O)N4CCC(O)(c5ccccc5)C4)cc3)cc2N=C(N)C1 (centres unmarked) [Compound 1.9, 2-amino-8-(4-(3-hydroxy-3-phenylpyrrolidine-1-carbonyl)phenyl)-N,N-dipropyl-3H-benzo[b]azepine-4-carboxamide] | 50 to 500 |
| CCCN(CCC)C(=O)C1=Cc2ccc(-c3ccc(C(=O)N4CCCC4c4ccccc4)cc3)cc2N=C(N)C1 (centres unmarked) [Compound 1.10, 2-amino-8-(4-(2-phenylpyrrolidine-1-carbonyl)phenyl)-N,N-dipropyl-3H-benzo[b]azepine-4-carboxamide] | 50 to 500 |
| CCCN(CCC)C(=O)C1=Cc2ccc(-c3ccc(C(=O)N4CCCC4CO)cc3)cc2N=C(N)C1 (centres unmarked) [Compound 1.11, 2-amino-8-(4-(2-(hydroxymethyl)pyrrolidine-1-carbonyl)phenyl)-N,N-dipropyl-3H-benzo[b]azepine-4-carboxamide] | 50 to 500 |
